The results in this text go back to patent US20230348376A1 (TEIJIN PHARMA LIMITED, priority 2020, published 2023).

The target of the assay is T1, human VDR (Homo sapiens, UniProt P11473).
T1 sequence (P11473 1-427): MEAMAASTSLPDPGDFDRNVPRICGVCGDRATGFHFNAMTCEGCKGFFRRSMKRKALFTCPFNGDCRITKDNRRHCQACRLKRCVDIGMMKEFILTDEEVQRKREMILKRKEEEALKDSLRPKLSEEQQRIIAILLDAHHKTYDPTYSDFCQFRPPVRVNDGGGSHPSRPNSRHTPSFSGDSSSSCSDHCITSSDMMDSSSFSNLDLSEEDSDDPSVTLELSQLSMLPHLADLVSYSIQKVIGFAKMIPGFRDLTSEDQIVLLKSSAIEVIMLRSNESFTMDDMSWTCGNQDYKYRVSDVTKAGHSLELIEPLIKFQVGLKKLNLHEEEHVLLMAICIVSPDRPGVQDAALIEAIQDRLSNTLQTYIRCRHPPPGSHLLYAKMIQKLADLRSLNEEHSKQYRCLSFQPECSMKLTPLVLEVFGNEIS
T1 sequence (P19793 1-462 partner): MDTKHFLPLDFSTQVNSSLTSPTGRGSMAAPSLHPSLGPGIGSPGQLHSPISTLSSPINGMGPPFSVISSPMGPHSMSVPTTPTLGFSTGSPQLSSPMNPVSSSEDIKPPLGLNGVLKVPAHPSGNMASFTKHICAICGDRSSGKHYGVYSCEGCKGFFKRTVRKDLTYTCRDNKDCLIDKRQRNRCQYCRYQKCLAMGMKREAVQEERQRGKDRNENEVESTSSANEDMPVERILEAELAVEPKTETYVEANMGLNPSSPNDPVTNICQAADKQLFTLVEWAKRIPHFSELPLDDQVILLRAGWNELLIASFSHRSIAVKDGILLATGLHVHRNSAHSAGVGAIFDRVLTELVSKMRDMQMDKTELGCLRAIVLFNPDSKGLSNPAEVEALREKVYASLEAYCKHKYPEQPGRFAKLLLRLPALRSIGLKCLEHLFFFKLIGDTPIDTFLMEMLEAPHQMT
Briefly: Evaluation of VDR transcription activity in human osteoblasts (HOS cells), luciferase reporter. Conditions: Activity (EC50, VDR transcription activity), HOS cells transfected with human VDR, human RXRα and DR3 luciferase reporter; 21 hours.

Each structure is given as a SMILES string.

The term EC50 denotes the concentration giving half of the maximal effect. For `COC1(C(F)(F)F)CN(CC[C@@H](C)[C@H]2CC[C@H]3/C(=C/C=C4C[C@@H](O)C[C@H](O)C4)CCC[C@]23C)C1` [Compound A027, (1R,3R)-5-(2-((1R,3aS,7aR,E)-1-((R)-4-(3-methoxy-3-(trifluoromethyl)azetidin-1-yl)butan-2-yl)-7a-methyloctahydro-4H-inden-4-ylidene)ethylidene)cyclohexane-1,3-diol], the EC50 was 1 to 10 nM.
As to `C=C1[C@H](O)CC(=C/C=C2\CCC[C@]3(C)[C@@H]([C@H](C)CCN4CC[C@H](CC(F)F)C4)CC[C@@H]23)C[C@H]1O` [Compound B090, (1R,3R)-5-(2-((1R,3aS,7aR,E)-1-((R)-4-((R)-3-(2,2-difluoroethyl)pyrrolidin-1-yl)butan-2-yl)-7a-methyloctahydro-4H-inden-4-ylidene)ethylidene)-2-methylenecyclohexane-1,3-diol], the EC50 was 1 to 10 nM.
On to `C=C1[C@H](O)CC(=C/C=C2\CCC[C@]3(C)[C@@H]([C@H](C)CCN4CC[C@H](C(C)(F)F)C4)CC[C@@H]23)C[C@H]1O` [Compound B091, (1R,3R)-5-(2-((1R,3aS,7aR,E)-1-((R)-4-((S)-3-(1,1-difluoroethyl)pyrrolidin-1-yl)butan-2-yl)-7a-methyloctahydro-4H-inden-4-ylidene)ethylidene)-2-methylenecyclohexane-1,3-diol], for which the EC50 lay within 1 to 10 nM.
The result for `C=C1/C(=C\C=C2/CCC[C@]3(C)[C@@H]([C@H](C)CN4CCC(O)(C(F)(F)F)C4)CC[C@@H]23)C[C@@H](O)C[C@@H]1O` (single isomer, unassigned) [Compound B044a] reads under 1 nM; that for `C=C1[C@H](O)CC(=C/C=C2\CCC[C@]3(C)[C@@H]([C@H](C)CN4CC[C@H](CC)C4)CC[C@@H]23)C[C@H]1O` [Compound B005, (1R,3R)-5-(2-((1R,3aS,7aR,E)-1-((S)-1-((S)-3-ethylpyrrolidin-1-yl)propan-2-yl)-7a-methyloctahydro-4H-inden-4-ylidene)ethylidene)-2-methylenecyclohexane-1,3-diol], 1 to 10 nM; that for `C[C@H](CCN1CCOCC1(C)C)[C@H]1CC[C@H]2/C(=C/C=C3C[C@@H](O)C[C@H](O)C3)CCC[C@]12C` [Compound D049, (1R,3R)-5-(2-((1R,3aS,7aR,E)-1-((R)-4-(3,3-dimethylmorpholino)butan-2-yl)-7a-methyloctahydro-4H-inden-4-ylidene)ethylidene)cyclohexane-1,3-diol], 100 to 1000 nM.
`C=C1/C(=C\C=C2/CCC[C@]3(C)[C@@H]([C@H](C)CN4CC[C@H](OC(F)(F)F)C4)CC[C@@H]23)C[C@@H](O)C[C@@H]1O` [Compound B065, (1R,3S,Z)-5-(2-((1R,3aS,7aR,E)-7a-methyl-1-((S)-1-((S)-3-(trifluoromethoxy)pyrrolidin-1-yl)propan-2-yl)octahydro-4H-inden-4-ylidene)ethylidene)-4-methylenecyclohexane-1,3-diol] gave an EC50 of 10 to 100 nM.
Turning to `C=C1[C@H](O)CC(=C/C=C2\CCC[C@]3(C)[C@@H]([C@H](C)CN4CC(OC(F)F)C4)CC[C@@H]23)C[C@H]1O` [Compound A018], the EC50 was 1 to 10 nM.
The result for `C[C@H](CCN1CC(OC(F)F)C1)[C@H]1CC[C@H]2/C(=C/C=C3C[C@@H](O)C[C@H](O)C3)CCC[C@]12C` [Compound A025, (1R,3R)-5-(2-((1R,3aS,7aR,E)-1-((R)-4-(3-(difluoromethoxy)azetidin-1-yl)butan-2-yl)-7a-methyloctahydro-4H-inden-4-ylidene)ethylidene)cyclohexane-1,3-diol] reads 100 to 1000 nM; that for `C=C1/C(=C\C=C2/CCC[C@]3(C)[C@@H]([C@@H](C)CN4CCC(O)(C(F)F)CC4)CC[C@@H]23)C[C@@H](O)C[C@@H]1O` [Compound C024, (1R,3S,Z)-5-(2-((1R,3aS,7aR,E)-1-((R)-1-(4-(difluoromethyl)-4-hydroxypiperidin-1-yl)propan-2-yl)-7a-methyloctahydro-4H-inden-4-ylidene)ethylidene)-4-methylenecyclohexane-1,3-diol], 1 to 10 nM; that for `C=C1/C(=C\C=C2/CCC[C@]3(C)[C@@H]([C@@H](C)CN4CC[C@@H](C)C4)CC[C@@H]23)C[C@@H](O)C[C@@H]1O` [Compound B011, (1R,3S,Z)-5-(2-((1R,3aS,7aR,E)-7a-methyl-1-((R)-1-((R)-3-methylpyrrolidin-1-yl)propan-2-yl)octahydro-4H-inden-4-ylidene)ethylidene)-4-methylenecyclohexane-1,3-diol], 10 to 100 nM.
Next, `C=C1/C(=C\C=C2/CCC[C@]3(C)[C@@H]([C@H](C)CN4CC[C@@H](OCC(F)F)C4)CC[C@@H]23)C[C@@H](O)C[C@@H]1O` [Compound B054, (1R,3S,Z)-5-(2-((1R,3aS,7aR,E)-1-((S)-1-((R)-3-(2,2-difluoroethoxy)pyrrolidin-1-yl)propan-2-yl)-7a-methyloctahydro-4H-inden-4-ylidene)ethylidene)-4-methylenecyclohexane-1,3-diol]: 10 to 100 nM.
`C=C1/C(=C\C=C2/CCC[C@]3(C)[C@@H]([C@H](C)CN4CC[C@](C)(O)C4)CC[C@@H]23)C[C@@H](O)C[C@@H]1O` [Compound B071, (1R,3S,Z)-5-(2-((1R,3aS,7aR,E)-1-((S)-1-((S)-3-hydroxy-3-methylpyrrolidin-1-yl)propan-2-yl)-7a-methyloctahydro-4H-inden-4-ylidene)ethylidene)-4-methylenecyclohexane-1,3-diol] displayed an EC50 of 10 to 100 nM.
With `C=C1/C(=C\C=C2/CCC[C@]3(C)[C@@H]([C@H](C)CN4CC[C@@H](CC(F)F)C4)CC[C@@H]23)C[C@@H](O)[C@H](C)[C@@H]1O` [Compound B039, (1R,2S,3S,Z)-5-(2-((1R,3aS,7aR,E)-1-((S)-1-((S)-3-(2,2-difluoroethyl)pyrrolidin-1-yl)propan-2-yl)-7a-methyloctahydro-4H-inden-4-ylidene)ethylidene)-2-methyl-4-methylenecyclohexane-1,3-diol], the EC50 lay in the range of 1 to 10 nM.
Next, `C[C@H](CCN1CC[C@H](F)C1)[C@H]1CC[C@H]2/C(=C/C=C3C[C@@H](O)C[C@H](O)C3)CCC[C@]12C` [Compound B014, (1R,3R)-5-(2-((1R,3aS,7aR,E)-1-((R)-4-((S)-3-fluoropyrrolidin-1-yl)butan-2-yl)-7a-methyloctahydro-4H-inden-4-ylidene)ethylidene)cyclohexane-1,3-diol]: 10 to 100 nM; `C=C1[C@H](O)CC(=C/C=C2\CCC[C@]3(C)[C@@H]([C@H](C)CCN4CC[C@@H](CCC(F)F)C4)CC[C@@H]23)C[C@H]1O` [Compound B094, (1R,3R)-5-(2-((1R,3aS,7aR,E)-1-((R)-4-((R)-3-(3,3-difluoropropyl)pyrrolidin-1-yl)butan-2-yl)-7a-methyloctahydro-4H-inden-4-ylidene)ethylidene)-2-methylenecyclohexane-1,3-diol]: 10 to 100 nM; `C=C1/C(=C\C=C2/CCC[C@]3(C)[C@@H]([C@H](C)CN4CCOC(C(F)(F)F)C4)CC[C@@H]23)C[C@@H](O)[C@H](C)[C@@H]1O` (single isomer, unassigned) [Compound D009b]: 10 to 100 nM.
